The source of these data is a melting point compilation (Tetko et al.; mined from patent text by program, amines drawn as free bases though some values may be those of a salt).

By melting point is commonly meant the temperature of the solid-liquid transition.

SMILES strings stand for the structures.

For `C=CC(=O)NCCCCCCCCCCCCOc1ccccc1`, the melting point is 69 to 71 °C.

Compound `CC(C)(O)Cn1c(COCc2ccccc2)nc2c(N)nc3ccccc3c21` came in with a melting point of 196 to 198 °C.

In turn, `Cc1c(Cl)c(Cl)c(Cl)c(Cl)c1CCl` came in with a melting point of 102 to 103 °C.

Take `COC(=O)/C=C(/OC)c1cccc2ccc(Br)cc12`: the melting point fell in the range of 96 to 97 °C.

In the case of `C#CCOc1ccc2c(c1)nc(N)c1nc(COCC)n(CC(C)(C)NS(C)(=O)=O)c12`, the melting point lay in the range of 175 to 176 °C.

`C=C(Nc1nc(-c2ccccc2)c(-c2nc3ccccc3c(=O)n2-c2ccccc2Cl)s1)c1ccco1` showed a melting point above 275 °C.

In turn, `[N-]=[N+]=C1CCCCCCCCCCC1=O` showed a melting point of 43 to 44 °C.

Regarding `CCN(CC)C(=O)c1cc(OC)cc(Oc2cccc(C(F)(F)F)c2)n1`, the melting point was 78 to 89 °C.

Consider `CCCCCCCOc1ccc(C(=O)O)c(F)c1F`, for which the melting point turned out to be 105 °C.

`Nc1cccc(NC(=O)Nc2ccc(N(CCCl)CCCl)cc2)c1` yielded a melting point of 182 to 183 °C.

In turn, `CCCC(=O)c1c[nH]c2ccsc2c1=O` returned a melting point of 244 to 247 °C.

Take `CC(C)(C)C(=O)Oc1ccc(C(=O)NNC(=O)c2occ(-c3ccccc3)c2-c2ccccc2)cc1C#N`: the melting point lay in the range of 152 to 154 °C.

For `CCCNC(=O)CCCCOc1ccc2c(c1)CCCN2C1CC(C)N(C(=O)c2cc(OC)c(OC)c(OC)c2)c2ccccc21` (stereo not drawn), the melting point lay within 124 to 133 °C.

`CNC(=O)NC1OCC(OC(C)=O)C(OC(C)=O)C1OC(C)=O` (stereo not drawn): the melting point was in the range of 170 to 172 °C.

`C(=Cc1ccc(-c2nc(-c3ccc(C=Cc4ccccc4)cc3)n(-c3ccccc3)n2)cc1)c1ccccc1`: the melting point was 218 to 220 °C.

`O=C1Cc2ccccc2C=Cc2c(Cl)cccc21` registered a melting point of 151 to 153 °C.

In turn, `OCCCn1cc(-c2cc3nccnc3[nH]2)c2ccccc21` had a melting point of 220 to 221 °C.

Compound `CCCn1cc(Cc2ccc(C(=O)O)cc2OC)c2cc(CC3CCN(CC)C3=O)ccc21` (stereo not drawn) showed a melting point of 94 to 99 °C.

`COc1ccc2c(c1)OCC21C(=O)N(Cc2ccccn2)c2ccccc21` (stereo not drawn) had a melting point of 122 to 123 °C.

In turn, `O=C(CC1C(=O)CCc2ccccc21)c1ccccc1` (stereo not drawn) returned a melting point of 48 to 52 °C.

As to `CS(=O)(=O)Oc1cccc(N2CCN(CCCCCC(=O)N3Cc4ccccc4C3)CC2)c1`, the melting point came out at 141 °C.

Consider `COc1ccc(F)cc1C1OC(=O)CC1C(=O)O` (stereo not drawn), for which the melting point was 41 to 43 °C.

As to `CCOC(=O)c1ccc(-c2ccc(OCCCCCCCCCCCCBr)cc2)cc1`, the melting point is 88.6 to 90.5 °C.

For the compound `CCCCCCCCCCCCCCCCCC(=O)c1ccc(C2=NC(C)(C)CO2)c(Cl)c1`, the melting point is 57 to 60 °C.

Compound `CCCc1c(OCCCCCCc2ccc(C(C)C)c(OC)c2OC)ccc(C(=O)O)c1O` returned a melting point of 106 to 108 °C.

In turn, `Cc1ncc(CN2C(=O)c3ccccc3C2=O)n1-c1ccc(Cl)cc1C(=O)c1ccccc1F` came in with a melting point of 192 to 196 °C.

The compound `COc1cn(-c2ccc(OCc3ccccc3)cc2F)nc(C(C)=O)c1=O` yielded a melting point of 101 to 103 °C.

`Cc1oc(-c2ccccc2)nc1C(O)COc1ccc(CC2SC(=N)NC2=O)cc1` (stereo not drawn) gave a melting point of 238 to 239 °C.

With `COc1ccc2c(c1)CN(c1ccc3c(ccn3C)c1)C2`, the melting point lay within 193 to 196 °C.

Turning to `Cc1nnc2ccc(-c3cccc(NC(C)C)c3)nn12`, the melting point is 157 to 159 °C.

For `CC1(C)CC(=O)c2c(SCCO)sc(-c3cc[nH]n3)c2C1`, the melting point was 182 to 185 °C.

For the compound `CCOC(=O)CCCNC(=O)c1ccc2c(c1)C=CC(C)(C)O2`, the melting point was 88 to 89 °C.

For the compound `CCCc1c(OCCCS(=O)(=O)c2nc3ccc(C(=O)O)cc3[nH]2)ccc(C(C)=O)c1O`, the melting point lay within 212 to 215 °C.

`COc1ccc(-c2ccc(-n3nnnc3C(F)(F)F)cc2)cc1C=O` came in with a melting point of 186 to 187 °C.

Regarding `Cc1cc(C)nc(Nc2ccc(OC(F)F)cc2)n1`, the melting point was 81 to 82 °C.

For `O=[N+]([O-])c1ccc(Sc2cc(Br)nc(Br)c2)cc1`, the melting point fell in the range of 166 to 168 °C.

Regarding `CN(CCCN1c2ccccc2CCc2ccccc21)c1ncccc1C(=O)O`, the melting point fell in the range of 133 to 135 °C.

For the compound `C=C(C)C(=O)NOC(=O)C(=C)C`, the melting point was found to be 55 °C.

For `COC(=O)c1cc(Cl)cc(N)c1O`, the melting point lay in the range of 65 to 67 °C.

`CCC(CC)Sc1cc2c(cc1Cl)N=C(C(N)=O)NS2(=O)=O`: the melting point lay within 287 to 289 °C.

As for `COc1cc(OC)nc(Oc2ccc3[nH]c(C)c(NC(C)=O)c3c2C(=O)O)n1`, the melting point fell in the range of 230 to 233 °C.

Compound `CCCn1c(-c2ccc(-n3ccnc3)cc2)cnc1[C@H](Cc1ccccn1)N(C=O)c1cc2cc(Br)ccc2o1` gave a melting point of 93 to 99 °C.

Consider `COCCN1CCc2cc(Nc3ncc(Cl)c(Nc4ccc(C(N)=O)cc4OC)n3)c(OC)cc2CC1`, for which the melting point was 100 to 112 °C.

In the case of `CCOC(=O)N(C)C(=O)N(O)C(C)c1cc(C)sc1C` (stereo not drawn), the melting point fell in the range of 111 to 112 °C.

Regarding `O=C1C2CCN(CC2)C1CN1CCCCC1` (stereo not drawn), the melting point lay within 34 to 37 °C.

Compound `NC(=O)c1sc2nccc(N3CCCN(c4ccc(Cl)cc4)CC3)c2c1N` returned a melting point of 92 to 96 °C.

In the case of `COC(=O)c1cc(Cl)c(Cl)c(C2=NOCC2)c1C`, the melting point was in the range of 74 to 76 °C.

Consider `Cc1nc(-c2ccc(C(F)(F)F)cc2)sc1CCOc1ccc(CCC(=O)O)cc1`, for which the melting point was in the range of 128 to 130 °C.

For the compound `CN1CCN(CCCOc2ccccc2Nc2nc(C#N)nc3c2ncn3C2CCCC2)CC1`, the melting point fell in the range of 136 to 138 °C.

`CCN(CC)CC(C)COc1ccc2nc(-c3cccc(OC)c3)n(CC(=O)NC(C)C)c(=O)c2c1` (stereo not drawn) came in with a melting point of 161 to 163 °C.

Turning to `CCOC(=O)C1=C(C)NC(N=CN(C)C)=C(C(=O)OCC)C1c1cccc(OC)c1` (stereo not drawn), the melting point came out at 136 °C.

On to `COc1cccc(OC/C=C(\C)C=O)c1`, for which the melting point was 45 to 48 °C.

`Cn1cc(-c2cccc(Br)c2)c(=O)c(-c2cccc(Br)c2)c1` returned a melting point of 216 °C.

`O=[N+]([O-])c1ccc2c(c1)OC(c1ccccc1)O2` (stereo not drawn): the melting point was 84 to 85 °C.

`COc1cc(C=O)ccc1NC(=O)OCC1c2ccccc2-c2ccccc21` gave a melting point of 150 to 152 °C.

With `CC(C)c1cccc(C(C)C)c1NC(=O)CN1CCN(c2cccc(Sc3nc4ccccc4[nH]3)c2)CC1`, the melting point was in the range of 123 to 125 °C.

`C/C(=C\Cn1oc(=O)[nH]c1=O)c1cccc(OCc2nc(-c3ccc(OC(F)(F)F)cc3)oc2C)c1` had a melting point of 145 to 146 °C.

As to `COc1ccccc1N1CCN(CCCNC(=O)c2cccc3c(=O)c(C)c(C4CCC(C)CC4)oc23)CC1` (stereo not drawn), the melting point is 166 °C.

Regarding `O=C1COC(c2cccc(Cl)c2)c2ncccc21` (stereo not drawn), the melting point lay within 158 to 160 °C.

For the compound `CCOC(=O)Cc1csc(NC(=O)C(N)Cc2cccs2)n1` (stereo not drawn), the melting point lay within 98 to 102 °C.

As for `CC(C)N(CCC(c1ccccc1)c1cc(Br)ccc1OCc1ccccc1)C(C)C` (stereo not drawn), the melting point lay in the range of 52 to 56 °C.

Take `N#CC(C#N)=C1c2cc(N)c(Cl)cc2-c2cc(Cl)c(N)cc21`: the melting point was 336 to 338 °C.

In turn, `CCCn1c(=O)c2c(nn3cc(-c4ccccc4)[nH]c23)n(Cc2ccccc2)c1=O` gave a melting point of 261 to 262 °C.

As for `c1ccc2c(N3CCCCC3)nc(N3CCCCC3)nc2c1`, the melting point lay in the range of 128 to 131 °C.

Regarding `COc1cc(C)nc(NC(=O)NS(=O)(=O)c2cccc3cc[nH]c23)n1`, the melting point was 207 to 209 °C.

In turn, `COc1ccc(-n2nc(Sc3ccc4ccccc4c3)c(C)c(C#N)c2=O)cc1` showed a melting point of 169 to 170 °C.

As for `COc1ccc2c(c1)S(=O)(=O)N=CN2CCF`, the melting point was 123 to 128 °C.

As to `CN(C(=O)N1Cc2ncn(Cc3ccccc3)c2CC1C(=O)O)c1ccccc1` (stereo not drawn), the melting point lay within 220 to 222 °C.

In the case of `CN(C)CCNc1nc(C(=O)Nc2nc3ccc(C#N)cc3s2)cs1`, the melting point was 201 to 203 °C.

Regarding `CCOC(=O)COc1cc(-c2cc3nccnc3[nH]2)ccc1OC`, the melting point fell in the range of 183 to 184 °C.

For the compound `CC(=O)Oc1ccc2c(c1)CCC1C2C(O)CC2(C)C(=O)CCC12` (stereo not drawn), the melting point lay within 180 to 182 °C.

Regarding `CCCc1nc(C=NNC(=O)OCC)c(C)[nH]1`, the melting point fell in the range of 184 to 188 °C.

Compound `CCc1cc(=O)c2c([nH]1)CCCN2` returned a melting point of 206 to 209 °C.

The compound `COC(=O)c1cc(N(C)C)c(N2CCCCC2)c(N(C)C)c1` had a melting point of 103 to 105 °C.

Turning to `CCCCc1ncc(C=CC(=O)O)n1Cc1ccccc1Cl`, the melting point is 178 to 179 °C.

The compound `CCCCCCCCCCCCc1nnn(C(C(N)=O)(c2ccccc2)c2ccc(F)cc2F)n1` (stereo not drawn) yielded a melting point of 62 to 64 °C.

`Nc1c2c(nc3ccccc13)CCS2` yielded a melting point of 210 to 212 °C.

Compound `COC(=O)N(C)CCCC(=O)OC[C@@H]1CC(c2ccc(-c3ccc(N4C[C@H](Cn5ccnn5)OC4=O)cc3F)cn2)=NO1` showed a melting point of 135 °C.

The compound `CCC1CCCCN1C(=O)C=Cc1c(-c2cccc(N(C)C)c2)nn2ccccc12` (stereo not drawn) registered a melting point of 180 to 184 °C.

As for `O=C1c2c(Cl)cccc2-n2cnc(-c3noc(CCl)n3)c2[C@@H]2CCCN12`, the melting point lay within 184 to 186 °C.

On to `CCCOc1ccc(C2=NN(C(=S)Nc3ccc(C(F)(F)F)cc3)CC2NCC(=O)OC)cc1` (stereo not drawn), for which the melting point was 167 to 169 °C.

In the case of `CC(O)c1ccc(C(O)(c2ccc3c(c2)c(-c2cccc(Cl)c2)cc(=O)n3C)c2cncn2C)cc1` (stereo not drawn), the melting point is 181 °C.

The compound `Cc1nnc(-c2ccccc2O)o1` yielded a melting point of 74 to 76 °C.

Compound `COc1ccc(C2C(C(=O)c3ccc(C(C)C)cc3)=C(O)C(=O)N2c2ccc(C)nn2)cc1` (stereo not drawn) yielded a melting point of 263 to 267 °C.

Take `COC(=O)C1(Oc2cc(-n3c(=O)cc(C(F)(F)F)n(C)c3=O)c(F)cc2Cl)CC=CNC1=O` (stereo not drawn): the melting point is 82.4 °C.

With `CCCCNc1c(C(=O)OCC)c(C)nc(NCC)c1[N+](=O)[O-]`, the melting point fell in the range of 53 to 55 °C.

`N=C(N)Nc1nc2ccccc2n1Cc1ccccc1` came in with a melting point of 167 °C.

With `NCC1Cc2cc(-c3ccc(F)cc3)cc(F)c2O1` (stereo not drawn), the melting point was above 250 °C.
